pIC50: −log10 of the molar value. Where a name gives a salt, the structure may show the parent alone. Read-outs that look alike come from different tables or passages of the source.
Key:
Wee1 (h) = Wee1 (h) (Homo sapiens, UniProt P30291); assay: Wee1 kinase (h) detection method, [γ-33P]-ATP filter assay; format: biochemical
Experimental: Determination of the inhibitory effect of 6-(2-chlorophenyl)-2-((4-(4-methylpiperazin-1-yl)phenyl)amino)-8,9-dihydroimidazo[1,2-a]pyrimido[5,4-e]pyrimidin-5(6H)-one and Analogs on the Enzyme Activity of Wee1 Kinase by Using the Wee1 Kinase (h) Detection Method
Then the stock solution of all compounds under test with 50× concentration in 100% DMSO was added to make the final concentration of 10/1/0.1/0.01 μM, and then mixed the mixture well. The reaction is initiated by the addition of the Mg/ATP mix. After incubation for 40 minutes at room temperature, the reaction is stopped by the addition of phosphoric acid to a concentration of 0.5%. […] Each compound sample is duplicated in duplicate. The negative control was lack of all the components of Wee1 enzyme, and the positive was addition of 30% phosphoric acid to terminate the reaction. The Wee1 inhibitor AZD1775 was detected at 10 μM at the same experiment condition.

LoVo cells = assay: MTT based cell viability assay on LoVo cells; details: Homo sapiens, LoVo, 72 h, 3 d, read-out: IC50, growth inhibition of LoVo cells
Experimental: Determination of the cell growth inhibiting activity of 6-(2-chlorophenyl)-2-((4-(4-methylpiperazin-1-yl)phenyl)amino)-8,9-dihydroimidazo[1,2-a]pyrimido[5,4-e]pyrimidin-5(6H)-one and analogs on LoVo cells using a MTT based cell viability assay
(§1) The thawed LoVo cells were cultured and passaged to the third generation, and the growth state was good and the confluence was about 90%, which began to be used in the experiment. The LoVo cells were digested with trypsin, centrifuged at 800 rpm for 5 min, the supernatant was discarded, resuspended with fresh culture medium, and counted. 6000 Cells are seeded to each well of a 96-well plate. The cells are incubated at 37° C. in a 5% CO2 cell culture incubator overnight. The tested sample (including the tested compound and the reference compound AZD1775) was diluted continuously to 8 concentrations (the last concentration was negative control of DMSO) with a 1:3 and 1:10 dilution in DMSO respectively: 10 μM, 3.3 μM, 1 μM, 0.33 μM, 0.1 μM, 0.033 μM, 0.01 μM, 0 μM (the final concentration of DMSO was 1%). 5 μL of each concentration was added to 120 μL of culture medium (25 times diluted), and the mixture was shaken well. The overnight cells were taken and the culture medium was removed, 195 μL of fresh culture medium was added to each well, and 5 μL of diluted culture medium containing the corresponding concentration of the tested sample was added respectively, and the culture plate was then placed in the 5% CO2 cell culture incubator at 37° C. for 3 d. After removing the original solution and adding 100 μL of fresh serum-free DMEM culture medium containing MTT (0.5 mg/mL) per well, the culture was continued. The original solution was removed after 4 hrs and 100 μl DMSO was added to each well. The 96-well cell culture plates were shaken away from light for 10 min and readed in a multifunctional reader at 552/630/690 nm to give absorption values (OD values). The data were analyzed using a commercial graphic software (Graph Pad Prism 5.0) and the inhibitory activity of the compound on cell proliferation was plotted in terms of cell survival and compound concentration. The IC50 values were fitted by the S-shaped dose-response curve equation as follows: Y=100/(1+10^(Log C-Log IC50)), where C was the concentration of testing compounds.

NCI-H1299 cells = assay: MTT based cell viability assay on NCI-H1299 cells; details: Homo sapiens, read-out: IC50, growth inhibition of NCI-H1299 cells
Experimental: Determination of the cell growth inhibiting activity of 6-(2-chlorophenyl)-2-((4-(4-methylpiperazin-1-yl)phenyl)amino)-8,9-dihydroimidazo[1,2-a]pyrimido[5,4-e]pyrimidin-5(6H)-one and analogs on NCI-H1299 cells using a MTT based cell viability assay
as §1, with “NCI-H1299” for “LoVo”, “group,” for “medium,”, “1000” for “6000”, “1‰).” for “1%).”, “C−Log” for “C-Log”

Sequence of Wee1 (h) (P30291 whole entry): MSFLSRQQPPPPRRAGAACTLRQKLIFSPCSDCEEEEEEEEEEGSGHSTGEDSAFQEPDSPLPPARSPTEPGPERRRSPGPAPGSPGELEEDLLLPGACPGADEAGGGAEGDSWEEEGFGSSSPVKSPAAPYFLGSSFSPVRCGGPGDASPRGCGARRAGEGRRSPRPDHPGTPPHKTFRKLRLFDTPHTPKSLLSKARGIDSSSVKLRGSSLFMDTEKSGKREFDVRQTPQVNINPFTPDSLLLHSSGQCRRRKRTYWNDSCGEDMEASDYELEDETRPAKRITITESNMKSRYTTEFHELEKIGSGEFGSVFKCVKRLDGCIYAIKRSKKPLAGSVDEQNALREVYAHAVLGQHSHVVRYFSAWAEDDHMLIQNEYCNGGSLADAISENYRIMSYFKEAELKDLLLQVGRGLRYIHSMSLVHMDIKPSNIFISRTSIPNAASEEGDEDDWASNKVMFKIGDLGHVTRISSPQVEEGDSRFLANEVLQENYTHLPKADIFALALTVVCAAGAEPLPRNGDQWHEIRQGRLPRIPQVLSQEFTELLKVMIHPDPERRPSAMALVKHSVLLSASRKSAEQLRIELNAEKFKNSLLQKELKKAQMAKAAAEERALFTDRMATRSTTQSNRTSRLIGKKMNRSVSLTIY

Compound | Inh. (%) of Wee1 kinase enzyme activity (Wee1 (h); C 0.01 μm compound) [%] | Inh. (%) of Wee1 kinase enzyme activity (Wee1 (h); C 0.1 μm compound) [%] | Inh. (%) of Wee1 kinase enzyme activity (Wee1 (h); C 1 μm compound) [%] | pIC50 (LoVo cells) | pIC50 (NCI-H1299 cells; NCI-H1299 cells) | pIC50 (NCI-H1299 cells; NCI-H1299, NCI-H1299 cells)
Cc1cccc(C)c1N1C(=O)c2cnc(Nc3ccc(N4CCN(C)CC4)cc3)nc2N2CCN=C21 [Example 83, 6-(2,6-Dimethylphenyl)-2-((4-(4-methylpiperazin-1-yl)phenyl)amino)-8,9-dihydroimidazo[1,2-a]pyrimido[5,4-e]pyrimidin-5(6H)-one] | 15 | 59 | 94 | 5.54 | 5.84 | –
Cc1cc(Nc2ncc3c(n2)N2CCN=C2N(c2c(F)cccc2F)C3=O)ccc1N1CCN(C)CC1 [Example 60, 6-(2,6-Difluorophenyl)-2-((3-methyl-4-(4-methylpiperazin-1-yl)phenyl)amino)-8,9-dihydroimidazo[1,2-a]pyrimido[5,4-e]pyrimidin-5(6H)-one] | 15 | 71 | 91 | 6.80 | 6.00 | –
C[C@@H]1CN(c2ccc(Nc3ncc4c(n3)N3CCN=C3N(c3c(Cl)cccc3Cl)C4=O)cc2C(F)(F)F)C[C@H](C)N1C [Example 74, 6-(2,6-Dichlorophenyl)-2-((3-trifluoromethyl-4-((3S,5R)-3,4,5-trimethylpiperazin-1-yl)phenyl)amino)-8,9-dihydroimidazo[1,2-a]pyrimido[5,4-e]pyrimidin-5(6H)-one] | 15 | 61 | 98 | 6.74 | – | 6.15
CN1CCN(c2ccc(Nc3ncc4c(n3)N3CCN=C3N(c3c(F)cccc3Cl)C4=O)c(F)c2)CC1 [Example 36, 6-(2-Chloro-6-fluorophenyl)-2-((2-fluoro-4-(4-methylpiperazin-1-yl)phenyl)amino)-8,9-dihydroimidazo[1,2-a]pyrimido[5,4-e]pyrimidin-5(6H)-one] | – | – | 0 | < 4.00 | < 5.00 | –
Cc1cccc(C)c1N1C(=O)c2cnc(Nc3ccc(N4C[C@@H](C)N(C)[C@@H](C)C4)cc3)nc2N2CCN=C21 [Example 84, 6-(2,6-Dimethylphenyl)-2-((4-((3S,5R)-3,4,5-trimethylpiperazin-1-yl)phenyl)amino)-8,9-dihydroimidazo[1,2-a]pyrimido[5,4-e]pyrimidin-5(6H)-one] | 18 | 49 | 93 | 5.51 | 6.08 | –
CC(C)N1Cc2cc(Nc3ncc4c(n3)N3CCN=C3N(c3c(F)cccc3Cl)C4=O)ccc2C2(CC2)C1 [Example 58, 6-(2-Chloro-6-fluorophenyl)-2-((2′-isopropyl-2′,3′-dihydro-1′H-spiro[cyclopropane-1,4′-isoquinolin]-7′-yl)amino)-8,9-dihydroimidazo[1,2-a]pyrimido[5,4-e]pyrimidin-5(6H)-one] | 46 | 92 | 100 | 7.05 | 6.37 | –
CN(C)CCCOc1ccc(Nc2ncc3c(n2)N2CCN=C2N(c2c(F)cccc2Cl)C3=O)cc1 [Example 106, 6-(2-Chloro-6-fluorophenyl)-2-((4-(3-(dimethylamino)propoxy)phenyl)amino)-8,9-dihydroimidazo[1,2-a]pyrimido[5,4-e]pyrimidin-5(6H)-one] | 38 | 83 | 94 | 6.48 | 6.08 | –
CN1CCN(c2ccc(Nc3ncc4c(n3)N3CCN=C3N(C3CCC3)C4=O)cc2)CC1 [Example 94, 6-Cyclobutyl-2-((4-(4-methylpiperazin-1-yl)phenyl)amino)-8,9-dihydroimidazo[1,2-a]pyrimido[5,4-e]pyrimidin-5(6H)-one] | – | – | 19 | 5.72 | 5.62 | –
Cc1cc(Nc2ncc3c(n2)N2CCN=C2N(c2c(C)cccc2Cl)C3=O)cc(F)c1N1CCC(N(C)C)CC1 [Example 170, 6-(2-Chloro-6-methylphenyl)-2-((4-(4-(dimethylamino)piperidin-1-yl)-3-fluoro-5-methylphenyl)amino)-8,9-dihydroimidazo[1,2-a]pyrimido[5,4-e]pyrimidin-5(6H)-one] | – | – | – | 7.11 | 7.05 | –
COc1cc(Nc2ncc3c(n2)N2CCN=C2N(c2c(Cl)cccc2Cl)C3=O)cc(C)c1N1CCN(C)CC1 [Example 159, 6-(2,6-Dichlorophenyl)-2-((3-methoxy-5-methyl-4-(4-methylpiperazin-1-yl)phenyl)amino)-8,9-dihydroimidazo[1,2-a]pyrimido[5,4-e]pyrimidin-5(6H)-one] | – | – | – | 7.28 | 7.25 | –
CNCc1cc(Nc2ncc3c(n2)N2CCN=C2N(c2c(Cl)cccc2Cl)C3=O)ccc1N1CCOCC1 [Example 184, 6-(2,6-Dichlorophenyl)-2-((3-((methylamino)methyl)-4-morpholinophenyl)amino)-8,9-dihydroimidazo[1,2-a]pyrimido[5,4-e]pyrimidin-5(6H)-one] | – | – | – | 5.83 | 6.06 | –
Cc1cc(Nc2ncc3c(n2)N2CCN=C2N(c2c(Cl)cccc2Cl)C3=O)ccc1N1CCC(N(C)C)CC1 [Example 141, 6-(2,6-Dichlorophenyl)-2-((4-(4-(dimethylamino)piperidin-1-yl)-3-methylphenyl)amino)-8,9-dihydroimidazo[1,2-a]pyrimido[5,4-e]pyrimidin-5(6H)-one] | – | – | – | 7.43 | 7.37 | –
CN1CCN(c2ccc(Nc3ncc4c(n3)N3CCN=C3N(c3c(Cl)cccc3Cl)C4=O)cc2Cl)CC1 [Example 186, 6-(2,6-Dichlorophenyl)-2-((3-chloro-4-(4-methylpiperazin-1-yl)phenyl)amino)-8,9-dihydroimidazo[1,2-a]pyrimido[5,4-e]pyrimidin-5(6H)-one dihydrochloride] | – | – | – | 7.37 | 6.81 | –
Cc1cc(Nc2ncc3c(n2)N2CCN=C2N(c2c(Cl)cccc2Cl)C3=O)ccc1N1CCNCC1 [Example 177, 6-(2,6-Dichlorophenyl)-2-((3-methyl-4-(piperazin-1-yl)phenyl)amino)-8,9-dihydroimidazo[1,2-a]pyrimido[5,4-e]pyrimidin-5(6H)-one] | – | – | – | 7.23 | 7.08 | –
